Measured values taken from patent US20140295547A1, “METHOD TO CONSTRUCT IN-VITRO HUMAN BLOOD BRAIN BARRIER MODEL” (National Chung Cheng University, priority 2013, published 2014).

Test system: in-vitro human BBB model (HBMECs co-cultured with HBVPs and HAs)
Experiment: Permeability of propidium iodide across the in-vitro human BBB model
Assay type: in vitro ADME
Source text: The present invention uses HBMECs and different ratios of HBVPs and HAs to construct a BBB model and measures TEER and permeability of propidium iodide (PI) to evaluate the integrity and performance of the BBB model. The present invention also uses a fluorescent dye Calcein to detect the activity of P-gp. The present invention also detects the concentrations of the transforming growth factor-β1 (TGF-β1), the matrix. metalloproteinases (MMP-9), and the vascular endothelial growth factor (VEGF), which influence the integrity of the BBB model.
Refer to FIG. 1 and FIG. 2. […] In Step S10, defrost a plurality of small tubes of frozen cell-containing liquids via placing them in water having a temperature of 37° C. for 1 minute until all the frozen cell-containing liquids completely liquefy and become the suspension liquids of HBVPs, HAs and HBMECs. In Step S12, respectively suck the suspension liquids of HBVPs, HAs and HBMECs from the small tubes, respectively place the suspension liquids in pretreated culture plates, and culture the suspension liquids in a carbon-dioxide incubator having a temperature of 37° C. and a relative humidity of 95%. In Step S14, provide a pretreated culture dish 10 having a filter membrane 12 made of PET (polyethylene terephthalate); flip over the filter membrane 12; attach the suspension liquids of HBVPs and HAs by a ratio of 1:1, 1:2, or 1:6 to the bottom surface of the filter membrane 12 of the culture dish 10 to plant HBVPs 14 and HAs 16 on the bottom surface, wherein the time for attaching is 1 hour and the total planting density of HBVPs 14 and HAs 16 is 4×10^5 cells/cm^2. In Step S16, fill the suspension liquid of HBMECs into the top surface of the filter membrane 12 to plant HBMECs 18 on the top surface, wherein the planting density of HBMECs 18 is 4×10^5 cell/cm^2. […]

Compound: CC[N+](C)(CC)CCC[n+]1c(-c2ccccc2)c2cc(N)ccc2c2ccc(N)cc21.[I-].[I-] [propidium iodide]
- PI permeability in comparison with the BBB model with HBVPs:HAs=1:2 (BBB model with HBVPs:HAs=1:1): higher
- PI permeability in comparison with the BBB model with HBVPs:HAs=1:2 (BBB model with HBVPs:HAs=1:6): higher
- permeability of propidium iodide relative to that of a single layer of the cultured HBMECs (HBMECs co-cultured with HBVPs:HAs=1:2, condition medium PCM:ACM 1:1 for 7 days): 39%
